Experimental data as given in patent US11230570B2, “Peptide for regulating reactivity to serotonin reuptake inhibitor based antidepressant, and use thereof” (DAEGU GYEONGBUK INSTITUTE OF SCIENCE AND TECHNOLOGY, priority 2018, dated 2022).
Where a name gives a salt, the structure may show the parent alone. No end group written: not given here.

How the values were obtained:
[1] = system: mossy cells; assay: Electrophysiological recording of hippocampal mossy cells in brain slices; type: cell-based, mouse; conditions: for activity of mossy cells: CNO perfused on slices
Text: Electrophysiological Evaluation of Hippocampal Mossy Cells […] To label and visualize mossy cells in hippocampal slices, a recombinant AAV vector (AAV2.EF1α.DIO.AcGFP1-myc) was bilaterally injected into the dentate hilus of the ventral hippocampus in […]. AcGFP1 was selectively expressed in the mossy cells. While recording the electrophysiological evaluation, the morphology, membrane capacitance and electrophysiological properties of the mossy cells were further confirmed. (2) Preparation of Slices 12-15-week male mice were euthanized with CO2. Subsequently, their brains were extracted and placed in an N-Methyl-D-glucamine-containing cutting solution (93 mM NMDG, 2.5 mM KCl, 1.2 mM NaH2PO4, 30 mM NaHCO3, 25 mM glucose, 20 mM HEPES, 5 mM sodium ascorbate, 3 mM sodium pyruvate, 2 mM thiourea, 0.5 mM CaCl2), 10 mM MgSO4. pH 7.4, 295-305 mM mOsm) on cold ice. The brain tissue slices (400-μm thickness) containing the ventral hippocampus were prepared using a VT1000 S Vibratome (Leica Microsystems Inc., Buffalo Grove, Ill., USA). After cutting, slices were allowed to recover in the cutting solution at 37° C. for 15 minutes, and then transferred to a recording solution at room temperature for at least 1 hour before recording of the electrophysiological evaluation. (3) Electrophysiological Recording Electrophysiological recordings were performed as described above. During recording, brain slices were placed in a perfusion chamber attached to a fixed stage of an upright microscope BX51WI (Olympus, Tokyo, Japan), and immersed in a continuously flowing oxygenated recording solution. Components contained in the solution are as follows: 125 mM NaCl, 25 mM NaHCO3, 25 mM glucose, 2.5 mM KCl, 1.25 mM NaH2PO4, 2 mM CaCl2) and 1 mM MgCl2, pH 7.4, 295-305 mM mOsm. Neurons were visualized with a 40× water immersion lens using near infrared (IR) light. Electrophysiological recording was performed using a Multiclamp 700B/Digidata 1440A system (Molecular Devices, Sunnyvale, Calif., USA). Patch electrodes were filled with an internal solution (126 mM K-gluconate, 10 mM KCl, 10 mM HEPES, 10 mM phosphocreatine, 4 mM ATP and 0.3 mM GTP, pH 7.3, 290 mM mOsmol). Whole-cell patch-clamp recordings were used to record spontaneous action potentials of mossy cells in the hippocampal slides, and all recording was performed at 37° C. […] In addition, CNO (1 mM) was perfused on the brain tissue slices to confirm the effect of Gi-DREADD. Experimental data was analyzed by pClamp10 software (Molecular Devices) and GraphPad Prism 6 (GraphPad Software, La Jolla, Calif., USA).

[2] = system: mice; assay: Novelty suppressed feeding test (NSF/NFS); type: in vivo, mouse; conditions: in s (unit assumed); for NSF test latency: CNO 0.3 mg/kg
Protocol: For chronic drug administration, 2 to 5 mice were housed in each cage. Fluoxetine hydrochloride (Spectrum Chemicals, USA) was intraperitoneally injected (10 mg kg-1 day-1) daily for 3 weeks. The drug was prepared by being dissolved in dimethyl sulfoxide (50%), and diluted with saline. For a control, a drug-free vehicle solution (0.9% saline) was administered daily. For a Gi-DREADD mouse experiment, clozapine-N-oxide (CNO; Sigma-Aldrich, USA) was directly dissolved in a 0.9% saline solution. A dose of CNO was 0.3 mg/kg, and 2 hours before each behavioral test, 100 μl/10 g of a solution per body weight was intraperitoneally injected.
(4) Novelty Suppressed Feeding Test (NSF)
(§1) The test was carried out for 15 minutes by partially changing a conventional method. 24 hours before behavioral testing, all food provided to the home cage was removed. […], a single 1.8-cm square-shaped food pellet was placed on a white filter paper positioned in the center of the test box. The mouse was placed in the corner of an open field, and a stopwatch was immediately operated. The latency to first bite food was recorded. Immediately after the test, the mice were placed in the home cage, and the amount of food intake was measured for 10 minutes.

[3] = system: mice; assay: Home cage feeding (HCF) test; type: in vivo, mouse; conditions: for home cage feeding level: control AcGFP1 and PASIP-AcGFP1 mice, chronic fluoxetine
Protocol: as §1

[4] = system: newborn postmitotic cells (DCX); assay: Doublecortin (DCX) immunostaining of immature neurons; type: in vivo, mouse; conditions: chronic fluoxetine administration, control mice
Protocol: 1-7. Immunohistochemistry
Immunostaining was carried out using the standard free-floating method. Sections were washed three times with PBS for 10 minutes each time, and incubated with 2% normal donkey serum, 0.2% bovine serum albumin and 0.3% Triton-X100. After blocking, the sections were incubated with primary antibodies diluted with a blocking buffer overnight at 4° C., the following primary antibodies were used: α-doublecortin (goat polyclonal, 1:200, Santa Cruz Biotech.), α-calretinin (mouse monoclonal, 1:500, SWANT), α-parvalbumin (rabbit polyclonal, 1:1000, SWANT), α-neuropeptide Y (rabbit polyclonal, 1:1000, Phoenix Pharmaceutical), α-GluR2/3 (rabbit polyclonal, 1:100, Millipore). After incubation for 24 hours, the sections were washed three times with PBS containing 0.2% Triton-X100 (PBS-T) for 10 minutes, and then incubated with Alexa-Fluor™-conjugated secondary antibodies (1:400, Life Technologies, USA) at room temperature for 3 hours. The sections were washed three times with PBS-T at room temperature for 10 minutes, and covered with a Prolong™ Gold, anti-fading mounting medium (Life Technologies, USA).

[5] = system: BrdU+ proliferating cells in the subgranular zone of the dentate gyrus; assay: BrdU labeling and neurogenic analysis; type: in vivo, mouse
Protocol: 1-8. BrdU Labeling and Neurogenic Analysis
Before the mice were sacrificed, a BrdU solution (200 mg/kg) was intraperitoneally administered for 3 hours. After transcardial perfusion, brain tissue was fixed with 4% PFA overnight, coronal sections with a 40-μm thickness were collected along the hippocampal rostro-caudal axis using a cryostat (CM3050S, Leica). The sections were processed using a free-floating method. Every sixth section throughout the hippocampus was subjected to BrdU immunohistochemical staining. Afterward, sections were pre-incubated with 1M HCl at 45° C. for 30 minutes to denature DNA, and washed three times with 0.1M PBS for neutralization. Immunohistochemistry was performed with α-BrdU (rat polyclonal, 1:200, Abcam, Cambridge, Mass., USA) and Alexa-Fluor™-conjugated secondary antibodies (1:400, Life Technologies, USA). A tester who was not given information on a slide code counted BrdU-labeled cells in the granule cell layer (GCL) and the subgranular zone (SGZ) of the dentate gyrus (DG) in the total of 12 sections derived from individual mice. The total number of BrdU-labeled cells per section was determined and multiplied by 6 to obtain the total number of cells per dentate gyrus.

[6] = system: mice; assay: Tail suspension test (TST); type: in vivo, mouse; conditions: for inactivity (immobility) in TST: in s (unit assumed)
Protocol: (5) Tail Suspension Test (TST) Mice were suspended by tails for 6 minutes. A test session was videotaped, and their immobility was scored using automated TST analysis software of Clever System (Reston, Va., USA). The immobility time during the last 4 minutes (excluding the initial 2 minutes) was calculated.

[7] = target: T1, p11/AnxA2/SMARCA3 complex (Homo sapiens, UniProt P07355+P60903); assay: Immunoprecipitation of p11/AnxA2/SMARCA3 complex in HEK293 cells; type: binding; conditions: in vitro immunoprecipitation with α-SMARCA3, HEK293 cells
T1 construct: endogenous in cells; host or cells: HEK293 (CRL-1573, ATCC)
T1 sequence (P60903 whole entry): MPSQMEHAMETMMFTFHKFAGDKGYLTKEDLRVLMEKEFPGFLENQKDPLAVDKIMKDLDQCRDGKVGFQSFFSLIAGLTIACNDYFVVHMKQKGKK
T1 sequence (P07355 2-339 limits assumed): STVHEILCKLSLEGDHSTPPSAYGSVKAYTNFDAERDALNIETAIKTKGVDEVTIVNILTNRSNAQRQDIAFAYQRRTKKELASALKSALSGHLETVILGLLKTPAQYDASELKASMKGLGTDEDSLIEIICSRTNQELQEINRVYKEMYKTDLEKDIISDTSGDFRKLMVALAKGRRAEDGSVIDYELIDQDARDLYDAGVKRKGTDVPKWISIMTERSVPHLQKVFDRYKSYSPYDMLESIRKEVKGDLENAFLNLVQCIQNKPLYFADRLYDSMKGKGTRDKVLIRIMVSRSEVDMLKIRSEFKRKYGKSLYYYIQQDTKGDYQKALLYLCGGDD
Protocol: 1-4. Immunoprecipitation of p11/AnxA2/SMARCA3 Complex
HEK293 cells (CRL-1573, ATCC) were transfected with a CMV-Cre plasmid, and 24 hours after transfection, transfected with an AAV vector expressing the control AcGFP1 or PASIP-AcGFP1 construct. Immunoprecipitation was performed with α-SMARCA3 antibodies (rabbit polyclonal antibodies prepared with immunized peptides). Immunoblotting was performed using the following antibodies according to a standard protocol: α-p11 (mouse monoclonal, 1:1000, BD Biosciences), α-p11 (goat polyclonal, 1:200, R&D Systems), α-SMARCA3 (goat polyclonal, 1:200, NOVUS), α-AnxA2 (mouse monoclonal, Santa Cruz Biotech.), α-GFP (goat polyclonal, Santa Cruz Biotech).

[8] = system: mice; assay: Light and dark box test; type: in vivo, mouse; conditions: PASIP-AcGFP1 mice vs control AcGFP1 154±16; p<0.01
Protocol: (3) Light and Dark Box Test (LD Box)
Mice were placed in an open field area (40×40×40 cm). A black box was inserted into the open field. The mice were placed into light compartments at the beginning of a session, and allowed to freely move between the compartments for 10 minutes. The time spent in each compartment and the latency to first enter the dark compartment were measured using automated Superflex™ software.

C[N+]1([O-])CCN(C2=Nc3cc(Cl)ccc3Nc3ccccc32)CC1 [CNO, clozapine-N-oxide]
activity of mossy cells ([1]; Gi-DREADD mice, mCherry-labeled mossy cells): silenced
activity of mossy cells ([1]; control mCherry mice): not in control mice

CNCCC(Oc1ccc(C(F)(F)F)cc1)c1ccccc1 (stereo not shown) [FLX, Fluoxetine hydrochloride]
NSF test latency ([2]; Gi-DREADD mice, chronic FLX (SAL 450±36)): 365±40
latency to access a food pellet ([2]; Smarca3f/f control mice (D2-Cre experiment), chronic FLX (SAL 257±47)): 104±12
latency to access a food pellet ([2]; Smarca3f/f control mice (MC-Cre experiment), chronic FLX (SAL 338±20)): 229±40
latency to access a food pellet ([2]; Smarca3f/f;D2-Cre conditional knockout mice, chronic FLX (SAL 192±15)): 232±32
latency to access a food pellet ([2]; Smarca3f/f;MC-Cre conditional knockout mice, chronic FLX (SAL 405±88)): 404±69
NSF test latency ([2]; control (mCherry) mice, chronic FLX (SAL 484±85)): 238±40
latency to feed ([2]; control AcGFP1 mice, chronic fluoxetine (SAL 296±48)): 147±22
latency to access a food pellet ([2]; p11f/f control mice, chronic FLX 10 mg/kg/day i.p. 3 weeks (SAL 351±38)): 165±24
latency to access a food pellet ([2]; p11f/f;D2-Cre conditional knockout mice, chronic FLX (SAL 364±46)): 296±58
home cage feeding level [3]: did not have a significant influence
food intake after coming back to the home cage ([3]; control and p11 / Smarca3 cKO mice, chronic SSRI): no change in food intake
survival and differentiation of newborn neuronal progenitors (DCX expression) [4]: enhanced the survival of newborn neuronal progenitors and promoted differentiation into mature neurons
mossy cell activity (spontaneous firing rate) ([1]; acute fluoxetine treatment): had no effect on mossy cell activity
spontaneous firing rate of mossy cells ([1]; chronic fluoxetine treatment (control 2.36±0.41 Hz)): 4.19±0.92 Hz
number of BrdU+ proliferating cells in the subgranular zone ([5]; Gi-DREADD mice, chronic FLX (SAL 172±27)): 232±20
number of BrdU+ proliferating cells in the subgranular zone ([5]; control (mCherry) D2-Cre mice, chronic FLX (SAL 177±18)): 337±37
BrdU+ proliferating cells ([5]; control mice, chronic fluoxetine (SAL 173±16)): 290±43
inactivity (immobility) in TST ([6]; Gi-DREADD mice, chronic FLX (SAL 128±9)): 129±10
inactivity (immobility) in TST ([6]; control (mCherry) mice, chronic FLX (SAL 141±9)): 110±9

PASIP-AcGFP1: p11/AnxA2/SMARCA3 complex inhibitory peptide-AcGFP1 fusion construct, expressed from a Cre-dependent AAV vector (GNGNGKVTFPKMKIPKFSGR; also: fused to AcGFP1)
assembly of the p11/AnxA2/SMARCA3 complex [7]: able to block the assembly of the p11/AnxA2/SMARCA3 complex
latency to feed ([2]; PASIP-AcGFP1 mice, SAL): 304±51
latency to feed ([2]; PASIP-AcGFP1 mice, chronic FLX): 293±54
light/dark box test [8]: 94±13
home cage feeding level [3]: did not have a significant influence
firing rate of mossy cells ([1]; mossy cells expressing construct (control AcGFP1 3.58±0.56 Hz)): 0.64±0.10 Hz
resting membrane potential in mossy cells ([1]; mossy cells expressing construct (control AcGFP1 −47.33±1.77 mV)): −54.33±1.32 mV
BrdU+ proliferating cells ([5]; PASIP-AcGFP1 mice (AAV, mossy cells), SAL): 119±27
BrdU+ proliferating cells ([5]; PASIP-AcGFP1 mice (AAV, mossy cells), chronic FLX): 129±13
effect of fluoxetine in tail-suspension test ([6]; PASIP-AcGFP1 mice, chronic fluoxetine): reduced an effect caused by fluoxetine administration
